From article PMC8480782, “Efficient Dimerization Disruption of Leishmania infantum Trypanothione Reductase by Triazole-phenyl-thiazoles” (Journal of Medicinal Chemistry, 2021)
Read-outs that look alike come from different tables or passages of the source.

Experiments:
LiTryR = biological target: T1, LiTryR (Leishmania infantum, UniProt A4HSF7); test: biochemical; format: biochemical; conditions: for IC50: LiTryR, 1 μM TS2, maximum assayed 75 μM, read-out: IC50^act, TryR oxidoreductase activity
T1 construct: HIS (N); made in house; host or cells: E. coli BL21 (DE3) Rossetta
How it was run: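 Recombinant HIS- or HIS-FLAG-tagged LiTryR (7 nM, E. coli-expressed) in DTNB-coupled assay at 26 °C, pH 7.5 HEPES with NADP+ 30 μM, DTNB 25 μM, NADPH 150 μM, TS2 1 μM, 1.75% DMSO. Reaction started with NADPH/TS2; TNB formation followed at 412 nm, data fitted by nonlinear regression.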

TcoTryR = biological target: T2, TcoTryR (Trypanosoma congolense, UniProt P13110); test: TryR oxidoreductase activity, DTNB-coupled assay (TcoTryR); format: biochemical
T2 construct: HIS; made in house; host or cells: E. coli
From the text: The DNA coding sequences for Homo sapiens GR, T. brucei TryR, and T. congolense TryR were polymerase chain reaction (PCR)-amplified and cloned in the pRSETA plasmid. The DNA coding for hGR (transcript variant 1; NCBI Reference Sequence: NM_000637.5) was purchased from GeneScript. Genomic DNA from T. congolense parasites was kindly provided by Dr. Stefan Magez (University of Vrije, Brussels). Genomic DNA from the T. brucei S16 cell line was kindly provided by José M. Pérez-Victoria. Instituto de Parasitología y Biomedicina “López—Neyra” CSIC. HIS-tagged recombinant T. brucei and T. congolense TryRs (TbTryR and TcoTryR, respectively) were purified from E. coli as already explained for LiTryR.
TryR oxidoreductase activity was determined spectrophotometrically using a modified version of the DTNB-coupled assay described by Hamilton et al.[52] Briefly, reactions were carried out at 26 °C in 250 μL of N-(2-hydroxyethyl)piperazine-N′-ethanesulfonic acid (HEPES) buffer (pH 7.5, 40 mM) containing ethylenediaminetetraacetic acid (EDTA) (1 mM), NADP^+ (30 μM), DTNB (25 μM), TS2 (1 μM), NADPH (150 μM), glycerol (0.02%), DMSO (1.75%), and recombinant TryR (7 nM). […] Reactions were started by addition of a mixture of NADPH and TS2.
TryR oxidoreductase activity was monitored at 26 °C by an increase in absorbance at 412 nm in an EnSpire Multimode Plate Reader (PerkinElmer, Waltham, MA). […] (TNB) concentration was obtained by multiplying the absorbance values by 100 (50 μM TNB generates 0.5 arbitrary units of absorbance at 412 nm). In this DTNB-coupled assay, one molecule of T(SH)2 reduces one molecule of DTNB, producing two TNB molecules. All of the assays were conducted in at least three independent experiments. Data were analyzed using a nonlinear regression model with GraFit 6 software (Erithacus, Horley, Surrey, U.K.).

HepG2 cells = test: Cellular toxicity, crystal violet assay; format: cell-based; conditions: Homo sapiens, read-out: EC50 HepG2
How it was run: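 HepG2 cells in DMEM with 10% FCS were exposed to compounds at 10^5 cells/mL for 24 h at 37 °C and 5% CO2. Remaining cells were stained with crystal violet, solubilized in 1% SDS and read at 570 nm. EC50 was obtained by nonlinear regression from triplicates in at least three independent experiments.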

[1] = HepG2, 24 h, crystal violet method

T1 sequence (A4HSF7 1-491): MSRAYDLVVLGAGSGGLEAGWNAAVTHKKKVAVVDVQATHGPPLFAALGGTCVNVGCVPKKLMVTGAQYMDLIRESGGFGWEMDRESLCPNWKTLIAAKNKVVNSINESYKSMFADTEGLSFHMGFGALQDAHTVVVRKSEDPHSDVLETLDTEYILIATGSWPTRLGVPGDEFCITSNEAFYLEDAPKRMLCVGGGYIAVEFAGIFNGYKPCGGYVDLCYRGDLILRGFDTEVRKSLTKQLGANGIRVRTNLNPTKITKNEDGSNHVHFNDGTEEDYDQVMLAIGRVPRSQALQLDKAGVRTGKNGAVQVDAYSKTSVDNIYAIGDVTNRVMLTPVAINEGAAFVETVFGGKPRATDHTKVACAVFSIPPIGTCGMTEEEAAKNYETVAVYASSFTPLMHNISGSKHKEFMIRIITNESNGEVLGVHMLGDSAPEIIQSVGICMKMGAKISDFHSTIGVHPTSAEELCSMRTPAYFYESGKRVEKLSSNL
T2 sequence (P13110 whole entry): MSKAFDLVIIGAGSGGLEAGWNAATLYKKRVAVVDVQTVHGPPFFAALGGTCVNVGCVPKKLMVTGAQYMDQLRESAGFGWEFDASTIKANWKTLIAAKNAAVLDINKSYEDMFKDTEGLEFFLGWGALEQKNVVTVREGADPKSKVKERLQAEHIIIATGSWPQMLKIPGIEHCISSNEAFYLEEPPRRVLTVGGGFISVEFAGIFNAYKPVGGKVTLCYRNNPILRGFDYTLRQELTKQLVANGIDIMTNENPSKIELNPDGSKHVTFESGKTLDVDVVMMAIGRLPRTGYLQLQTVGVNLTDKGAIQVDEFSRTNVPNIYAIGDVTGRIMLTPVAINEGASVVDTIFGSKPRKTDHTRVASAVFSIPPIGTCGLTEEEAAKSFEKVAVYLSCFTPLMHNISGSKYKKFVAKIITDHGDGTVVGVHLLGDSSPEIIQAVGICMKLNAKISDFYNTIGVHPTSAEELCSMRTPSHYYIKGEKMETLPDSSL

SMILES | IC50 (LiTryR) [µM] | IC50 (TcoTryR) [µM] | EC50 (HepG2 cells; [1]) [µM] | EC50 (HepG2 cells; HepG2, 24 h) [µM] | fold more potent than 12n, IC50^act (LiTryR; versus monomeric 12n) [fold]
NCCCCc1cn(-c2ccc(-c3nc(CCc4ccc5c(c4)CCO5)cs3)c(OCCN3CCNC3=O)c2)nn1.O=C(O)C(F)(F)F [12r] | 11.9 ± 0.6 | 10.1 ± 1.4 | 29.4 ± 0.7 |  | 
NCCCCc1cn(-c2ccc(-c3nc(CCc4ccc5ccccc5c4)cs3)c(OCCN3CCNC3=O)c2)nn1.O=C(O)C(F)(F)F [12b, 1-(2-(5-(4-(4-Ammoniumbutyl)-1H-1,2,3-triazol-1-yl)-2-(4-(2-(naphthalen-2-yl)ethyl)thiazol-2-yl)phenoxy)ethyl)imidazolidin-2-one 2,2,2-Trifluoroacetate] | 5.9 ± 1.1 | 4.8 ± 1.9 | 33.3 ± 2.7 |  | 
NCCCCc1cn(-c2ccc(-c3nc(CCc4ccc(-c5ccccc5)cc4)cs3)c(OCCN3CCNC3=O)c2)nn1.O=C(O)C(F)(F)F [12c, 1-(2-(2-(4-(2-([1,1′-Biphenyl]-4-yl)ethyl)thiazol-2-yl)-5-(4-(4-ammoniumbutyl)-1H-1,2,3-triazol-1-yl)phenoxy)ethyl)imidazolidin-2-one 2,2,2-Trifluoroacetate] | 10.9 ± 1.8 | 4.8 ± 1.8 | 43.1 ± 2.6 |  | 
NCCCCc1cn(-c2ccc(-c3nc(CCc4ccc5oc6ccccc6c5c4)cs3)c(OCCN3CCNC3=O)c2)nn1.O=C(O)C(F)(F)F [12s] | 6.6 ± 1.9 |  |  | > 75 | 
NCCCCc1cn(-c2ccc(-c3nc(-c4cccc(-c5csc(-c6ccc(-n7cc(CCCCN)nn7)cc6OCCN6CCNC6=O)n5)c4)cs3)c(OCCN3CCNC3=O)c2)nn1.O=C(O)C(F)(F)F.O=C(O)C(F)(F)F [compound 22, 1,1′-((((1,3-Phenylenebis(thiazole-4,2-diyl))bis(5-(4-(4-ammoniobutyl)-1H-1,2,3-triazol-1-yl)-2,1-phenylene))bis(oxy))bis(ethane-2,1-diyl))bis(imidazolidin-2-one)bis(2,2,2-trifluoroacetate)] | 0.4 ± 0.03 | 0.5 ± 0.1 | 30.5 ± 4.1 |  | 28
NCCCc1cn(-c2ccc(-c3nc(CCc4ccc(-c5ccccc5)cc4)cs3)c(OCCN3CCNC3=O)c2)nn1.O=C(O)C(F)(F)F [12i] | 19.7 ± 3.8 |  | 60.4 ± 3 |  | 
NCCCCc1cn(-c2ccc(-c3nc(-c4ccc(Oc5ccccc5)cc4)c(-c4ccccc4)s3)c(OCCN3CCNC3=O)c2)nn1.O=C(O)C(F)(F)F [19c, 1-(2-(5-(4-(4-Ammoniobutyl)-1H-1,2,3-triazol-1-yl)-2-(4-([4-phenyloxyphenyl]-1-yl)-5-phenylthiazol-2-yl)phenoxy)ethyl)imidazolidin-2-one 2,2,2-Trifluoroacetate] | 16.9 ± 2.7 |  | ≥ 75 |  | 
NCCNCc1nccn1-c1ccc(-c2nc(CCc3ccc(-c4ccccc4)cc3)cs2)c(OCCN2CCNC2=O)c1 [compound 3, reference compound] | 8.6 ± 1.4 |  | 14.2 ± 0.9 |  | 
NCCCCc1cn(-c2ccc(-c3nc(-c4ccccc4)c(-c4ccccc4)s3)c(OCCN3CCNC3=O)c2)nn1.O=C(O)C(F)(F)F [19a, 1-(2-(5-(4-(4-Ammoniobutyl)-1H-1,2,3-triazol-1-yl)-2-(4,5-diphenylthiazol-2-yl)phenoxy)ethyl)imidazolidin-2-one 2,2,2-Trifluoroacetate] | 4.3 ± 1 | 5.6 ± 0.8 | 26.5 ± 4.1 |  | 
NCCNCc1nccn1-c1ccc(-c2nc(CCc3ccc4ccccc4c3)cs2)c(OCCN2CCNC2=O)c1 [compound 2, reference compound] | 5.1 ± 0.4 |  | 27.1 ± 2.4 |  | 
NCCCCc1cn(-c2ccc(-c3nc(-c4ccccc4)cs3)c(OCCN3CCNC3=O)c2)nn1.O=C(O)C(F)(F)F [12n] | 11.2 ± 0.2 | 9.3 ± 0.8 | 16.4 ± 2.3 |  | 
NCCCCc1cn(-c2ccc(-c3nc(CCc4ccc5c(c4)CCCN5)cs3)c(OCCN3CCNC3=O)c2)nn1.O=C(O)C(F)(F)F.O=C(O)C(F)(F)F [12q] | 6.9 ± 2.1 |  | 43.3 ± 1 |  | 
